From patent US6139538A, “Iontophoretic agent delivery to the female reproductive tract” (Iotek, Inc., priority 1997, dated 2000)
“And” between values parts separate entries of the source, which are not always exact repeats. Identical values can stand only once. Like-named read-outs stand apart in the source and are kept apart here.

Settings: 20 minutes
[1] = Experiment #1, active (A1, A2, A3): 4% lidocaine solution, 1 mA
[2] = Experiment #1, passive (P1, P2, P3): 4% lidocaine solution, no current
[3] = Experiment #2, active (A1, A2, A3): 4% lidocaine solution, 1 mA

Method: Two identical experiments compared iontophoretic delivery of an anesthetic into the uterine wall with passive delivery of the anesthetic into the uterine wall. Each experiment was conducted using segments of porcine uteri. In the first experiment, there were three trials of iontophoretic delivery using fresh segments of porcine uteri from the first pig and three trials of passive delivery using fresh segments of porcine uteri from the first pig. This procedure was repeated in the second experiment using segments of porcine uteri from the second pig. The weight of the pig for the first experiment was 110 lbs., and the weight of the pig for the second experiment was 120 lbs.
When running each trial for both the first and second experiments, the segment of porcine uterus was placed between two half diffusion cells, a donor cell and a receptor cell. […] The receptor cell was filled with isotonic saline. […] The tissue samples were analyzed using high pressure liquid chromatography (HPLC).
For the active delivery trials in each experiment, a donor or delivery electrode (anode) of Ag was placed in the donor cell and a receptor or return electrode (cathode) of AgCl was placed in the receptor cell. A 1 mA current was then conducted between the donor and receptor electrodes for 20 minutes. For the passive delivery trials in each experiment, the segments of porcine uteri were left in the diffusion cell opening between the donor solution and the receptor solution for 20 minutes.

With `CCN(CC)CC(=O)Nc1c(C)cccc1C` [lidocaine] the “Total μg in tissue” value [1] was 604.6 µg and 600.2 µg and 494.6 µg, the μg/mL of lidocaine [1] was 120.9 µg/mL and 120.0 µg/mL and 98.9 µg/mL and the “Total μg in tissue” value [2] was 131.8 µg and 95.5 µg and 172.1 µg. For the same compound, the μg/mL of lidocaine [2] was 26.4 µg/mL and 19.1 µg/mL and 34.4 µg/mL, the “Total μg/g in tissue” value [3] was 702.3 µg/g and 808.2 µg/g and 781.1 µg/g and the μg/mL of lidocaine [3] was 140.5 µg/mL and 161.6 µg/mL and 156.2 µg/mL.
